# From patent US20250195498A1, “INHIBITOR OF CELLULAR PURINE NUCLEOTIDE SALVAGE PATHWAY ENZYME FOR USE IN THE TREATMENT AND/OR PREVENTION OF HELICOBACTER PYLORI INFECTION AND/OR DISEASE ASSOCIATED WITH SUCH INFECTION AND PHARMACEUTICAL COMPOSITION COMPRISING THE SAME” (UNIWERSYTET WARSZAWSKI, priority 2022, published 2025)
# Where “and” joins values, the source holds several entries; their conditions need not be identical. Equal entries are not always repeated. Where two headings read alike, the source gives them in different places.
# Tests used:
# Type in all cases: cell-based, Helicobacter pylori
# [1] = tested on: H. pylori strain M26 (MTZ + CLR resistant); assay: Growth curve method / MIC, resistant strain M26; details: Helicobacter pylori, strain M26, MTZ + CLR resistant
# Experimental: (§1) The representative PNP inhibitor from H. pylori included in this study was immucillin A. The experiment was conducted using the growth curve method (two-fold serial dilutions in liquid medium). The tested H. pylori strains were cultured in Petri dishes with BHI solid medium supplemented with 10% FBS and 1% H. pylori Selective Supplement antibiotic kit, in anaerostats under microaerophilic conditions (5% 02, 10% CO2, 85% N2) at 37° C. for 3 days. Liquid culture of H. pylori was conducted overnight with shaking at 37° C. under microaerophilic conditions in BHI medium supplemented with 10% FBS and 1% H. pylori Selective Supplement antibiotic kit. Subsequently, for the essential experiment of determining the minimum inhibitory concentration (MIC), double strengthened liquid BHI medium was prepared, that is, supplemented with 20% FBS and a 2% set of H. pylori Selective Supplement antibiotics.
# (§2) Bacterial proliferation inhibition experiments were carried out in 24-deep-well 2 ml flat-bottomed plates at a solution volume per well of 0.5 ml. In a single well, double strengthened (relative to the concentration planned for testing) solutions of the test inhibitor and double strengthened liquid BHI medium inoculated with H. pylori (10^4-10^5 CFU/ml in the final volume in the well, corresponding to the optical density of the culture OD600=0.05) were mixed together in a 1:1 ratio.
# (§3) Kanamycin at a concentration of 25 μg/ml (Irie et al., 1997) was used as a positive control, while Mili-Q deionized water and BHI medium not inoculated with bacteria were used as negative controls. Plates were shaken at 37° C., under microaerophilic conditions. […] After 24 hours, the OD600 of samples containing the negative control, i.e. with Mili-Q deionized water, was about 1.2-1.4, corresponding to a bacterial concentration of about […].
# (§4) In addition, the method proposed by Knezevic et al. (2018) was used to check whether the observed OD600 was from live bacterial cells. For this purpose, an equal volume of Christensen's double strength urea broth (that is, containing twice the concentration of all components) was added to the wells after incubation, and the plates were additionally incubated for 4 hours in an oxygen atmosphere at 37° C. During incubation, in wells with urease produced by live bacteria, urea is converted to ammonia and carbon dioxide, changing the pH of the solution and thus the colour of the phenol red indicator contained in the medium (from orange to purple).
# (§5) All experiments were performed in triplicate.
# (§6) The antibacterial activity of two compounds, mefloquine (in the form of hydrochloride) and quinine, described in the literature as potent in vitro inhibitors of the PNP enzyme from Plasmodium falciparum (Dziekan et al., 2019), was tested. Using a two-fold serial dilution method in liquid medium (as described in Example 3), the MIC values for mefloquine and quinine were determined against clinical H. pylori strains resistant to MTZ, CLR and MTZ+CLR (M26, M91, M92 and M93), as well as the reference H. pylori strain 26695. Four clinical H. pylori strains isolated from adults, from primary infections (the subjects had never previously been treated against H. pylori infection) were tested. These strains come from the collection of the Department of Microbiology of the Medical University of Wroclaw and were obtained due to collaboration with Prof. Grażyna Gościniak, MD, PhD. The tested compounds belong to organic substances and are soluble in DMSO. The maximum tested concentration of quinine in H. pylori culture was 0.56 mM, and that of mefloquine was 2.25 mM. […] On each occasion, the effect of DMSO alone on the growth of the H. pylori strains tested was also checked. […] Kanamycin was used as a positive control and Mili-Q deionised water as a negative control. All experiments were carried out in triplicate. […]
# [2] = tested on: H. pylori strain M91 (MTZ + CLR resistant); assay: Growth curve method / MIC, resistant strain M91; details: Helicobacter pylori, strain M91, MTZ + CLR resistant
# Experimental: as §1, §2, §3, §4, §5, §6
# H. pylori strain 26695 = assay: Growth curve method / MIC in liquid culture, strain 26695; details: Helicobacter pylori
# How it was run: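 Two-fold serial dilutions in BHI liquid medium with 10% FBS and 1% H. pylori Selective Supplement, inoculated at 10^4-10^5 CFU/ml (OD600=0.05); shaken 24 h at 37° C. under microaerophilic conditions (5% O2, 10% CO2, 85% N2). MIC from OD600 growth; viability confirmed by 4 h urease/phenol red colour change; triplicate.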
# H. pylori strain N6 = assay: Growth curve method / MIC, strain N6; details: Helicobacter pylori
# Experimental: as §1, §2, §3, §4, §5
# (§7) Inhibition by PLP and its metabolic precursors of the growth of H. pylori strains: 26695, N6 and P12 in culture was investigated using the growth curve method as described in Example 3. From these experiments, the minimum inhibitory concentration was determined as the lowest concentration of a compound that inhibits the visible growth of the bacteria, compared to growth in control samples without the tested compounds. All experiments were carried out in triplicate.
# [3] = tested on: H. pylori strain M92 (CLR resistant); assay: Growth curve method / MIC, resistant strain M92; details: Helicobacter pylori, strain M92, CLR resistant
# Experimental: as §1, §2, §3, §4, §5, §6
# H. pylori strain P12 = assay: Growth curve method / MIC, strain P12; details: Helicobacter pylori
# Experimental: as §1, §2, §3, §4, §5, §7
# [4] = strain 26695, wild-type, read-out: MIC (Table 7)
# [5] = strain N6, wild-type, read-out: MIC (Table 7)
Compound,MIC ([1]; read-out: MIC),MIC ([1]; read-out: MIC (Table 7)) [µM],MIC ([2]; read-out: MIC) [µg/mL],MIC ([2]; read-out: MIC (Table 7)) [µM],MIC (H. pylori strain 26695; [4]) [µM],"MIC (H. pylori strain 26695; strain 26695, read-out: MIC)",MIC (H. pylori strain N6; [5]) [µM],"MIC (H. pylori strain N6; strain N6, read-out: MIC)",MIC ([3]; read-out: MIC),MIC ([3]; read-out: MIC (Table 7)) [µM],"MIC (H. pylori strain P12; P12, read-out: MIC (Table 7)) [µM]","MIC (H. pylori strain P12; strain P12, read-out: MIC)"
"Cc1ncc(CO)c(C=O)c1O.Cl [PI-h, pyridoxal hydrochloride]",255 µg/mL and 1250 µM,1.25,255,1.25,2.5,509 µg/mL and 2500 µM,2.5,509 µg/mL and 2500 µM,509 µg/mL and 2500 µM,2.5,2.5,509 µg/mL and 2500 µM
"Cc1ncc(COP(=O)(O)O)c(C=O)c1O [PLP, pyridoxal 5′-phosphate]",309 µg/mL and 1250 µM,1.25,309 to 618,1.25 to 2.5,2.5,618 µg/mL and 2500 µM,2.5,618 µg/mL and 2500 µM,309 to 618 µg/mL,1.25 to 2.5,2.5,618 µg/mL and 2500 µM
